The text below walks through data of patent publication US5789654A, “Transgenic animals deficient in endogenous β3 -adrenergic receptor and uses thereof” (Beth Israel Hospital Association, priority 1996, dated 1998).

Assay [1] relates to β3 -AR. The class given is in vivo, mouse. The note with it: for stimulated oxygen consumption: β3 -AR-deficient male mice vs control. As for the experimental part: (§1) Mice that received norepinephrine were anesthetized with pentobarbital for the study.
(§2) Oxygen consumption was measured as described by Lowell et al. (supra) in twelve-week-old control, β3 -AR-deficient male mice, and β3 -AR-deficient knockout mice expressing the human β3-AR gene.

For assay [2], the system named is β3 -AR. As to the kind of experiment: Effect of a single dose on food intake. The note with it: β3 -AR-deficient mice; 1 mg/kg intraperitoneal; twenty-four hours. The class given is in vivo, mouse. As for the experimental part:
(§3) FIG. 9 is a graph showing the effect of a single dose of CL 316,243 on food intake. […] The mice were housed individually during the test period, and results for each group are the mean of five animals (±S.E.). Food intake was determined during the twenty-four hours following CL 316,243 or saline treatment.
(§4) To acclimate the mice to injections and handling, saline was injected daily for three days preceding day zero of the study. The mice were housed individually during the study. Food was weighed before injection and twenty-four hours after, and the differences were assumed to represent grams of food eaten per day. The cages were inspected for food spillage, and none was noted.

Assay [3] relates to β3 -AR. The class given is in vivo, mouse. Conditions: for FFA: serum, fifteen minutes after injection. The protocol:
(§5) To determine the effect of β3 -AR deficiency on β-adrenergicsignaling in vivo, various adrenergic agonists were administered to control and knockout mice, and the effects on serum levels of FFAs, glycerol, and thermogenesis were assessed.
(§6) Whole blood was collected and analyzed for blood glucose levels (One Touch Blood Glucose Meter, Lifescan, Inc., Milpitas, Calif.). Serum was then isolated and assayed for FFAs (NEFA C kit, Wako Pure Chemical Industries, Ltd.), glycerol (GPO-Trinder Kit, procedure 337, Sigma), and insulin (rat insulin kit, Linco Research Inc., St. Louis, Mo.) according to the manufacturers' protocols.

Assay [4] relates to isolated white adipocytes. As to the kind of experiment: Lipolysis (glycerol release) in isolated white adipocytes. The class given is cell-based, mouse. The note with it: +ADA. The protocol: (§7) To determine the functional consequences of β3 -AR deficiency on β-adrenergic signalling, the effects of β-adrenergic agonists on adenylate cyclase activity and lipolysis were assessed. For determination of adenylate cyclase activity (FIG. 5), plasma membranes were obtained from isolated white adipocytes or interscapular brown adipose tissue, and then were incubated in the presence of various agonists. […] To assess lipolysis (FIGS. 6A and 6B), white adipocytes were isolated from epididymal fat pads, and then incubated in the presence of various agonists. Rates of lipolysis were determined by quantitating the release of glycerol.
For analysis of lipolysis, isolated white adipocytes (100 μl of a 10% isolate fat cell suspension) were incubated in a final volume of 500 μl, and glycerol release was measured over a fifteen minute period. […] Except where noted, the incubation medium consisted of a Krebs-Ringer-Hepes (30 mM) buffer (pH 7.4) supplemented with 2.5% bovine serum albumin (fraction V), 10 μM PIA (N^6 -[R-(-)-1-methyl-2-phenyl]adenosine), 1 unit/ml adenosine deaminase, and varying concentrations of agonists.

Assay [5] concerns the target T1, β3 -AR (Mus musculus, UniProt P25962). The class given is in vivo. The arrangement: plasma membranes of isolated white adipocytes (epididymal) or interscapular brown adipose tissue; -/- mice are null control. Conditions: control mice; 1.0 mg/kg subcutaneously. As for the experimental part: as §1, §2
Assay [6] concerns the target T1, β3 -AR. As to the kind of experiment: Acute effect on plasma insulin and blood glucose. The class given is in vivo. More on the design: plasma membranes of isolated white adipocytes (epididymal) or interscapular brown adipose tissue; -/- mice are null control. Conditions: control mice; 1 mg/kg intraperitoneal, fifteen minutes.
From the text: (§8) FIGS. 8A-B are graphs showing the acute effect of saline or CL 316,243 on plasma insulin and blood glucose concentrations. […] Blood was obtained from the tail fifteen minutes after […]. The results are expressed as the mean ±S.E. (+/+=seven mice, -/-=four mice).
as §6

Assay [7] relates to β3 -AR. As to the kind of experiment: Acute effect on plasma insulin and blood glucose. The class given is in vivo, mouse. The note with it: β3 -AR-deficient mice; 1 mg/kg intraperitoneal.
From the text: as §8, §6

Assay [8] has as its target T1, β3 -AR. The class given is in vivo. The arrangement: endogenous in cells; host or cells: whole mice (control +/+ and beta-3-AR-deficient -/-, FVB background). The protocol: as §5, §6
The target of assay [9] is T1, β3 -AR. As to the kind of experiment: Effect of a single dose on food intake. The class given is in vivo. More on the design: endogenous in cells; host or cells: whole mice (control +/+ and beta-3-AR-deficient -/-, FVB background). Conditions: control mice; 1 mg/kg intraperitoneal; twenty-four hours. As for the experimental part: as §3, §4
In assay [10] the test system is β3 -AR. The class given is biochemical, mouse. Conditions: for reduction of stimulatory effect on adenylate cyclase activity: β3 -AR-deficient vs wild type. The protocol:
as §7

In assay [11] the target is T1, β3 -AR. The class given is biochemical. The arrangement: plasma membranes of isolated white adipocytes (epididymal) or interscapular brown adipose tissue; -/- mice are null control. Conditions: wild type mice; maximally effective / effective doses. As for the experimental part: as §7
Another assay deals with T2, human β3 -AR (Homo sapiens, UniProt P13945).
T2 construct: reconstituted with an 80 kb β3 -AR human genomic clone; expressed in transfected cells; host or cells: transgenic beta-3-AR-deficient mice (human genomic P1 insert injected into zygotes; mRNA detected in brown adipose tissue only)
T2 sequence (P13945 whole entry): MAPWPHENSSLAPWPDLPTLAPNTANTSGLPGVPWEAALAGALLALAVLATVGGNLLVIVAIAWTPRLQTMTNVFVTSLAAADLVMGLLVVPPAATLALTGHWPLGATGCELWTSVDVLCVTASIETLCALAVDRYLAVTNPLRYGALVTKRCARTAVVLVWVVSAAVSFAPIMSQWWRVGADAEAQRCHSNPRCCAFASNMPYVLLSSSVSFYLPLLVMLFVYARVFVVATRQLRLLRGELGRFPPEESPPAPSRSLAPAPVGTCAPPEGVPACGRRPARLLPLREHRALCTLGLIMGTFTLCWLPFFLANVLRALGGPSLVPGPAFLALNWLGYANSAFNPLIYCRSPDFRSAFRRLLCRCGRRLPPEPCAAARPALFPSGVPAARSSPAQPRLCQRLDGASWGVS
As to the kind of experiment: O2 consumption in knockout mice expressing the reconstituted human β3 -AR. The class given is in vivo, mouse. The note with it: 10 mg/ml. The protocol:
The effects on oxygen consumption were then assessed according to standard methods (e.g., those described herein).
as §2

Where two headings read alike, the source gives them in different places.

T1 sequence (P25962 whole entry): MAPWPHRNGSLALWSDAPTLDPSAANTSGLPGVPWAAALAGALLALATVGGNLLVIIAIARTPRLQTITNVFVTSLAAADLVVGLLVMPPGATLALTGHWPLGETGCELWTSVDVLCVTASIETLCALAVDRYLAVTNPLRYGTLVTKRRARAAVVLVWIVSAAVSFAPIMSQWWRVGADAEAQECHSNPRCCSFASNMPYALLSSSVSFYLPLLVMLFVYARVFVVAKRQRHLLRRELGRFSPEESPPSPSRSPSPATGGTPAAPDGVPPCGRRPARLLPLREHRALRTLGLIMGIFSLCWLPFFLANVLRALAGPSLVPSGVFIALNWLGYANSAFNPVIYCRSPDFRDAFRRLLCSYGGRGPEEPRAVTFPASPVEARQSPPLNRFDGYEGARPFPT

Take `NC[C@H](O)c1ccc(O)c(O)c1` [norepinephrine]: in the assay on β3 -AR [1] (0.6 mg/kg subcutaneously, anesthetized with pentobarbital), the stimulated oxygen consumption entry is given as “not significantly reduced”.

With `C[C@H](Cc1ccc2c(c1)OC(C(=O)O)(C(=O)O)O2)NC[C@H](O)c1cccc(Cl)c1` [CL 316,243], the “effect on food intake” value in the assay on β3 -AR [2] is reported as “completely ineffective”. Besides, the FFA with β3 -AR [3] (female -/-) is 630 ± 140 µM; on β3 -AR [8] (serum, fifteen minutes after injection, female +/+), 2,260 ± 350 μM. Also, the “increase in serum FFA levels” value was “totally absent” in the assay with β3 -AR [3] (β3 -AR-deficient mice) and 3.2 fold at β3 -AR [8] (control mice). Moreover, the lipolysis in adipocytes entry in assay [4] (wild type mice, +PIA) is “stimulated”; in assay [4] (β3 -AR-deficient mice, +PIA), “absent”. Further, the “increase in oxygen consumption” value was 2 fold on β3 -AR [5] and “totally absent” with β3 -AR [1] (β3 -AR-deficient mice, 1.0 mg/kg subcutaneously). Besides, the “increase in plasma insulin levels” value on β3 -AR [6] was 140 fold. The “reduction in blood glucose” value at β3 -AR [6] is “fifty-six”. For the same compound, in the assay with β3 -AR [7], the “effect on blood glucose” value was “completely without effect”. Also, in the assay on β3 -AR [7], the “effect on plasma insulin levels” value is listed as “completely without effect”. For the same compound, the “reduction in food intake” value on β3 -AR [9] was “forty-five”. Besides, the “adenylate cyclase activity in membranes” value in the assay with β3 -AR [10] (β3 -AR-deficient mice, maximally effective doses) is on record as “absent”; on β3 -AR [11] it was “stimulated”.

Turning to `CC(C)(C)NCC(O)COc1cccc2[nH]c(=O)[nH]c12` (stereo not shown) [CGP-12177], the “increase in oxygen consumption” value at human β3 -AR is recorded as “twenty”.

Consider `C=C[C@@]1(C)CC(=O)[C@]2(O)[C@@]3(C)[C@@H](O)CCC(C)(C)[C@@H]3[C@H](O)[C@H](OC(C)=O)[C@@]2(C)O1` [forskolin], for which the lipolysis in adipocytes entry is “stimulate lipolysis” in [4] (wild type mice, +PIA) and “stimulate lipolysis” in assay [4] (β3 -AR-deficient mice, +PIA).

For `CC(C)NCC(O)c1ccc(O)c(O)c1` (stereo not shown) [isoproterenol], in the assay on β3 -AR [3] (mouse, in vivo), the Glycerol came out at 239 ± 15 µM. Moreover, in the assay with β3 -AR [3] (male -/-), the FFA worked out at 1.510 ± 20 µM. Further, the stimulation of lipolysis entry in assay [4] (wild type adipocytes, maximally effective concentration, +PIA) was “about five”. Further, in assay [4] (β3 -AR-deficient adipocytes, -PIA), the “reduction of stimulated lipolysis” value is “about thirty-three”. Besides, the lipolysis in adipocytes entry in assay [4] (β3 -AR-deficient mice, +PIA) is on record as “absent”. Also, the stimulated oxygen consumption result in the assay on β3 -AR [1] (0.3 mg/kg subcutaneously, awake) was “not significantly reduced”. For the same compound, the “reduction of stimulatory effect on adenylate cyclase activity” value with β3 -AR [10] (membranes derived from brown adipose tissue) is “seventy”; in the assay on β3 -AR [10] (membranes derived from isolated white adipocytes) it was “eighty”.

With `C[C@H](Cc1ccccc1)Nc1ncnc2c1ncn2[C@@H]1O[C@H](CO)[C@@H](O)[C@H]1O` [PIA, N^6-[R-(-)-1-methyl-2-phenyl]adenosine], the “inhibition of isoproterenol-stimulated lipolysis” value in assay [4] (control adipocytes, with vs without PIA (10 μM)) is reported as “only minimally inhibited”.

Regarding “Adrenocorticotropic hormone (SYSMEHFRWGKPVGKKRRPVKVYPNGAEDESAEAFPLEF; Corticotropin; UniProt P01189 138-176, looked up) [ACTH, hormone that stimulates lipolysis via a seven-transmembrane receptor Gαs -adenylate cyclase-coupled mechanism]”, the lipolysis in adipocytes entry is on record as “increase lipolysis” in assay [4] (wild type mice, +PIA) and “increase lipolysis” in assay [4] (β3 -AR-deficient mice, +PIA).
